# pEC50, pKi: −log10 of the molar value. Several values for one entry are separate records, joined by “and”; a condition that tells them apart may be missing. Identical values can stand only once. Like-named read-outs stand apart in the source and are kept apart here. Marks after values point to notes of the source that are not given here.
# What was measured:
# [1] = In vitro metabolism, intrinsic clearance in human liver microsomes; assay type: in vitro ADME; conditions: for Clint: human liver microsomes intrinsic clearance; for Clint / half-life / % Compound Remaining, 1st / % Compound Remaining, 2nd / % Compound Remaining, Mean: 1.0×10^−7 M; for microsomal CLint / half-life: human, human liver microsomes
# [2] = molecular target: 5-HT2B (h) (Homo sapiens, UniProt P41595); test: Radioligand binding, agonist radioligand [125I](±)DOI
# [3] = molecular target: T1, human 5-HT2A receptor (Homo sapiens, UniProt P28223); test: Gq-mediated calcium transients (calcium mobilization), Fluo-4, HEK cells; assay type: cell-based
# T1 construct: expressed in transfected cells
# [4] = system: C57BL/6J mice; test: Head twitch response (HTR), magnetometer detection; assay type: in vivo; conditions: for HTR counts, mean: 30-minute session; for ED50: Mus musculus
# Description: The head twitch response (HTR) can be used as a behavioral proxy in rodents for human hallucinogenic effects, because it can reliably distinguish hallucinogenic and non-hallucinogenic 5-HT2A receptor agonists. […] HTR studies were conducted with (R)-DOI and 2C-iBu in C57BL/6J mice.
# Male C57BL/6J mice (6-8 weeks old) obtained from Jackson Laboratories (Bar Harbor, ME, USA) were housed at up to four per cage in a climate-controlled room on a reverse-light cycle (lights on at 1900 h, off at 0700 h) and were provided with ad libitum access to food and water, except during behavioral testing. Testing was conducted between 1000 and 1800 h.
# Drug doses are based on the equivalent freebase weight. Test substances were dissolved in sterile isotonic saline and injected subcutaneously (SC) at a volume of 5 mL/kg.
# The HTR was assessed using a head-mounted magnet and a magnetometer detection coil, according to known methods. Briefly, mice were anesthetized, a small incision was made in the scalp, and a small neodymium magnet was attached to the dorsal surface of the cranium using dental cement. Following a two-week recovery period, HTR experiments were carried out in a well-lit room with at least seven days between sessions to avoid carryover effects. Test compounds were injected immediately prior to testing. Mice were injected with drug or vehicle and then HTR activity was recorded in a glass cylinder surrounded by a magnetometer coil. Coil voltage was low-pass filtered (2-10 kHz cutoff frequency), amplified, and digitized (20 kHz sampling rate) using a Powerlab/8SP with LabChart v 7.3.2 (ADInstruments, Colorado Springs, CO, USA), then filtered off-line (40-200 Hz band-pass).
# Experiment 1. Five groups of mice (n=6/group, 30 total) were treated with vehicle or R-DOI (0.1, 0.3, 1, or 3 mg/kg) and HTR activity was assessed for 30 minutes. Experiment 2. Five groups of mice (n=6-7/group, 34 total) were treated with vehicle or 2C-iBu (0.3, 1, 3, or 10 mg/kg) and HTR activity was assessed for 30 minutes. Experiment 3. Two groups of mice (n=7/group, 14 total) were treated with R-DOI (1 mg/kg) or 2C-iBu (3 mg/kg) and HTR activity was assessed for 210 minutes.
# For Experiment 1 and Experiment 2, the entire thirty-minute recordings were examined for head twitches, head twitch counts were analyzed using one-way analyses of variance (ANOVA). In addition, HTR counts were analyzed in two-minute time blocks using one-way ANOVAs, with time as a repeated measure. Post hoc pairwise comparisons between selected groups were performed using Tukey's studentized range method.
# A Gaussian distribution was used to fit biphasic HTR dose-response data:
# [formula] [formula] In these equations, E is the drug effect, Baseline is the response in the control group, Range is the distance from Baseline to the top of the curve, [A] is the dose of the drug, and midA is the logarithm of the dose corresponding to the top of the curve. To determine whether potency differences exist between individual compounds, ED50 values were compared using an extra-sum-of-squares F-test.
# For Experiment 3, HTR counts were examined in 5-min time blocks. To determine the half-life of drug responses, the descending phase of the data was fitted with a one-phase exponential decay function. The responses produced by R-(−)-DOI (1 mg/kg) or ELEU02 were analyzed using one-way ANOVA, with time as a repeated measure. Post hoc pairwise comparisons between groups were performed using Sidak's multiple comparisons test.
# [5] = molecular target: 5-HT2A (h) (Homo sapiens, UniProt P28223); test: Radioligand binding, agonist radioligand [125I](±)DOI
# [6] = molecular target: T2, 5-HT1D (Rattus norvegicus, UniProt P28565); test: Radioligand binding, agonist radioligand [3H]serotonin; design: species or system human
# T2 construct: membrane preparations
# [7] = molecular target: T3, 5-HT1A (h) (Homo sapiens, UniProt P08908); test: Radioligand binding, agonist radioligand [3H]8-OH-DPAT
# T3 construct: membrane preparations
# T3 sequence (P08908 1-422): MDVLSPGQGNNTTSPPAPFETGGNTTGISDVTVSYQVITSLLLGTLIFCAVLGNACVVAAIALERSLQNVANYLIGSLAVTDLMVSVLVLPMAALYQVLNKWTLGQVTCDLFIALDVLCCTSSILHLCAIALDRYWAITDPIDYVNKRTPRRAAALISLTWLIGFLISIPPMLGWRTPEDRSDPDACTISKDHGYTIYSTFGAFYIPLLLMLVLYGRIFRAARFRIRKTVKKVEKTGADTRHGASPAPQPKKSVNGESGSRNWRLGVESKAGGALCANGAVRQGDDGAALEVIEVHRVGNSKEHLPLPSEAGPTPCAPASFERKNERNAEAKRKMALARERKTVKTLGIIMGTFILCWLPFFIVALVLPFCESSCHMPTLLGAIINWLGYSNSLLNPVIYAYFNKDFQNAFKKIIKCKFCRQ
# [8] = molecular target: T4, 5-HT6 (h) (Homo sapiens, UniProt P50406); test: Radioligand binding, agonist radioligand [3H]LSD
# T4 construct: membrane preparations
# [9] = molecular target: T5, 5-HT7 (h) (Homo sapiens, UniProt P34969); test: Radioligand binding, agonist radioligand [3H]LSD
# T5 construct: membrane preparations
# [10] = read-out: Half-life (minutes), 1st
# [11] = read-out: Half-life (minutes), 2nd
# [12] = read-out: Half-life (minutes), Mean
# [13] = HEK293, read-out: EMAX (%) calcium mobilization
# [14] = sc, read-out: ED50 for induction of HTR, based on molar mass
# [15] = SC, freebase weight, read-out: ED50 for induction of HTR
# T1 sequence (P28223 whole entry): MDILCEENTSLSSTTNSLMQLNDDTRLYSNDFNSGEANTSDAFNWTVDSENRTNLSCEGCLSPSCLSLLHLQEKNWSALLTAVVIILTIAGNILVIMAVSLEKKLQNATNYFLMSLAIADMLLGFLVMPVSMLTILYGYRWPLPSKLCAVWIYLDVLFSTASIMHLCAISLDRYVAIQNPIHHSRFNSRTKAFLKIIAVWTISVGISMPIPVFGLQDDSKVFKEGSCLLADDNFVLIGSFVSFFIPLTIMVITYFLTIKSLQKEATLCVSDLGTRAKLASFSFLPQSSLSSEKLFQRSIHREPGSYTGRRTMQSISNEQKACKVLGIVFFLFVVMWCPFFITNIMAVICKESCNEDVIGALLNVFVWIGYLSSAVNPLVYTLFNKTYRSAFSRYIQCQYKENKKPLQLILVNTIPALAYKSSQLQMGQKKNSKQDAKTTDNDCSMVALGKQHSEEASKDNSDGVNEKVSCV
# Sequence of 5-HT2B (h) (P41595 whole entry): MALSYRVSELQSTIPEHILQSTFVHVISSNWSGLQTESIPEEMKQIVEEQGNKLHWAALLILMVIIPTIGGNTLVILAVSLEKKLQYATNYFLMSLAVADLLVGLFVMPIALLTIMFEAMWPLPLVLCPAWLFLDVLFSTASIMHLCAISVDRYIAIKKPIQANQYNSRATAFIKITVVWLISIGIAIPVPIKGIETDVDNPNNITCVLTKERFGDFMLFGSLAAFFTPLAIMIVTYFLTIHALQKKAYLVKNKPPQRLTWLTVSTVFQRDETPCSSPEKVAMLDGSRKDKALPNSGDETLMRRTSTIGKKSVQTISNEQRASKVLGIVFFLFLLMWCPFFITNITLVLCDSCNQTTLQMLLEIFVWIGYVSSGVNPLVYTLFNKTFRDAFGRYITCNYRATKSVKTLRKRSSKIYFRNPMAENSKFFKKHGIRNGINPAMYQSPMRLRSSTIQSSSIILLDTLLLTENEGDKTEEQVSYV
# Sequence of 5-HT2A (h) (P28223 whole entry): as the sequence (P28223 whole entry) above
# T4 sequence (P50406 whole entry): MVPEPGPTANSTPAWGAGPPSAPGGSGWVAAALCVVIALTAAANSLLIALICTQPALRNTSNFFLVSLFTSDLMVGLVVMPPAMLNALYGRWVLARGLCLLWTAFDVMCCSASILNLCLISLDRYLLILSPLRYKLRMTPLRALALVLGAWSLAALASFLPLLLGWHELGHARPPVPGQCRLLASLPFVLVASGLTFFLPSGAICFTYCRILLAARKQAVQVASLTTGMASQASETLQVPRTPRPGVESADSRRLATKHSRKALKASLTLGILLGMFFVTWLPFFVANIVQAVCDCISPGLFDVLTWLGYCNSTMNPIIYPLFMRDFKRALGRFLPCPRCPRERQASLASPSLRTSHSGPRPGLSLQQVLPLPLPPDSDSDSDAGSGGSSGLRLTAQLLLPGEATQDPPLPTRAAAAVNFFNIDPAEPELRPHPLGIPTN
# T5 sequence (P34969 whole entry): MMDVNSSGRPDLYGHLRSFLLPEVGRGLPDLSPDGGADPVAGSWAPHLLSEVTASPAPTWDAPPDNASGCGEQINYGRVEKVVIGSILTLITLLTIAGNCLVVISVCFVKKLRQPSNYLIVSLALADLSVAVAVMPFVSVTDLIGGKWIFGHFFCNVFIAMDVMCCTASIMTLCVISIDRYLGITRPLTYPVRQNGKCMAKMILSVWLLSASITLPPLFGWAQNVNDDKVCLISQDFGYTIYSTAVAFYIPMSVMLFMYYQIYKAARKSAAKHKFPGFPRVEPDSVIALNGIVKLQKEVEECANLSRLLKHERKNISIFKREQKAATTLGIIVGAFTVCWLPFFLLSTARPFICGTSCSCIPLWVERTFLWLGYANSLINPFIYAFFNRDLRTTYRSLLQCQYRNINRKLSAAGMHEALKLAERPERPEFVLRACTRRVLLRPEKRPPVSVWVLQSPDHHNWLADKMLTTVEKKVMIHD
# T2 sequence (P28565 whole entry): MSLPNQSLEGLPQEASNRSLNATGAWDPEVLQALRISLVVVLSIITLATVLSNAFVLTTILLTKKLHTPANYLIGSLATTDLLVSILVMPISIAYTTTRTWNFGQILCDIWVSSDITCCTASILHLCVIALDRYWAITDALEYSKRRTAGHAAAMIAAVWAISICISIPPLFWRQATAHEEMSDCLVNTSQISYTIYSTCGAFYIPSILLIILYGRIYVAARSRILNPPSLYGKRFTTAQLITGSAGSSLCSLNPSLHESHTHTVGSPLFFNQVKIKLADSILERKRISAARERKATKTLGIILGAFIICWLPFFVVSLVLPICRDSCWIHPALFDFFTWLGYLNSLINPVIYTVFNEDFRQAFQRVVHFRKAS
Compound,Clint [1],microsomal CLint [1] [µL/min/mg],"half-life [1, 10] [min]","half-life [1, 11] [min]","half-life [1, 12] [min]","% Compound Remaining, 1st ([1]; incubation 0 minutes) [%]","% Compound Remaining, 2nd ([1]; incubation 0 minutes) [%]","% Compound Remaining, Mean ([1]; incubation 0 minutes) [%]","% Compound Remaining, 1st ([1]; incubation 15 minutes) [%]","% Compound Remaining, 2nd ([1]; incubation 15 minutes)","% Compound Remaining, Mean ([1]; incubation 15 minutes) [%]","% Compound Remaining, 1st ([1]; incubation 30 minutes) [%]","% Compound Remaining, 2nd ([1]; incubation 30 minutes) [%]","% Compound Remaining, Mean ([1]; incubation 30 minutes) [%]","% Compound Remaining, 1st ([1]; incubation 45 minutes) [%]","% Compound Remaining, 2nd ([1]; incubation 45 minutes) [%]","% Compound Remaining, Mean ([1]; incubation 45 minutes) [%]","% Compound Remaining, 1st ([1]; incubation 60 minutes) [%]","% Compound Remaining, 2nd ([1]; incubation 60 minutes)","% Compound Remaining, Mean ([1]; incubation 60 minutes) [%]",also measured
COc1cc(C[C@@H](C)N)c(OC)cc1I [R-DOI],<115.5,< 116,139,188,> 60,100,100,100,90.0,101.6%,96,79.6,105.3,92,77.0,82.1,80,74.3,{91.4} %,74,"pKi [2]: 8.60; Emax [3, 13]: 112%; HTR counts, mean ([4]; 0.1 mg/kg SC): 46.5 counts/30 min; HTR counts, mean ([4]; 0.3 mg/kg SC): 78.8 ** counts/30 min; HTR counts, mean ([4]; 1 mg/kg SC): 128.0±13.2 counts/30 min and 128.0 ** counts/30 min; HTR counts, mean ([4]; 3 mg/kg SC): 116.0 ** counts/30 min; Peak HTR counts ([4]; Experiment 3, 1 mg/kg SC): 23.3±3.5 counts/5 min; ED50 [4, 14]: 0.63 µmol/kg; ED50 [4, 15]: 0.2 mg/kg; ED50 ([4]; administered IP, otherwise identical conditions, read-out: ED50 for induction of HTR): 0.66 µmol/kg"
"COc1cc(CC(C)C)c(OC)cc1CCN [2C-iBu, 2,5-dimethoxy-4-isobutylphenethylamine]",<115.5,< 116,> 60,1020,> 60,100,100,100,91.0,{126.7} %,91,113.6,114.2,114,105.3,106.5,106,94.1,94.2%,94,"pKi [5]: 8.90; pKi [6]: 7.20; pKi [7]: 7.10; pKi [2]: 7.80; pEC50 [3]: 8.66; Emax [3, 13]: 88%; Emax ([3]; HEK293, read-out: EMAX Ca^2+): 103%; HTR counts, mean ([4]; 0.3 mg/kg SC): 30.8 counts/30 min; HTR counts, mean ([4]; 1 mg/kg SC): 74.4 ** counts/30 min; HTR counts, mean ([4]; 3 mg/kg SC): 111.1±4.7 counts/30 min and 111.1 ** counts/30 min; HTR counts, mean ([4]; 10 mg/kg SC): 43.4* counts/30 min; Peak HTR counts ([4]; Experiment 3, 3 mg/kg SC): 20.1±3.5 counts/5 min; ED50 [4, 14]: 2.17 µmol/kg; ED50 [4, 15]: 0.7 mg/kg; fold lower behavioral potency than R-DOI ([4]; ratio of HTR ED50 values (μmol/kg)): ~3 fold; pKi [8]: 5.90; pKi [9]: 6.50"
